Structures are written as SMILES. Some results are limits rather than exact numbers.

For the assay, the target named is T1, ΔF508-CFTR (Homo sapiens, UniProt P13569, DEL508-508).
T1 construct: expressed in transfected cells
The assay is described as follows: Membrane potential optical assay for ΔF508-CFTR potentiation. Conditions: NIH 3T3 cells. Format: cell-based. The text has this: The assay utilizes fluorescent voltage sensing dyes to measure changes in membrane potential using a fluorescent plate reader (e.g., FLIPR III, Molecular Devices, Inc.) as a readout for increase in functional ΔF508-CFTR in NIH 3T3 cells. The driving force for the response is the creation of a chloride ion gradient in conjunction with channel activation by a single liquid addition step after the cells have previously been treated with compounds and subsequently loaded with a voltage sensing dye. To identify potentiators of ΔF508-CFTR, a double-addition HTS assay format was developed. This HTS assay utilizes fluorescent voltage sensing dyes to measure changes in membrane potential on the FLIPR III as a measurement for increase in gating (conductance) of ΔF508 CFTR in temperature-corrected ΔF508 CFTR NIH 3T3 cells. The driving force for the response is a Cl^− ion gradient in conjunction with channel activation with forskolin in a single liquid addition step using a fluorescent plate reader such as FLIPR III after the cells have previously been treated with potentiator compounds (or DMSO vehicle control) and subsequently loaded with a redistribution dye. Bath Solution #1: (in mM) NaCl 160, KCl 4.5, CaCl2 2, MgCl2 1, HEPES 10, pH 7.4 with NaOH. Chloride-free bath solution: Chloride salts in Bath Solution #1 (above) are substituted with gluconate salts. […]

T1 sequence (P13569 with tags, fused parts or gaps DEL508-508): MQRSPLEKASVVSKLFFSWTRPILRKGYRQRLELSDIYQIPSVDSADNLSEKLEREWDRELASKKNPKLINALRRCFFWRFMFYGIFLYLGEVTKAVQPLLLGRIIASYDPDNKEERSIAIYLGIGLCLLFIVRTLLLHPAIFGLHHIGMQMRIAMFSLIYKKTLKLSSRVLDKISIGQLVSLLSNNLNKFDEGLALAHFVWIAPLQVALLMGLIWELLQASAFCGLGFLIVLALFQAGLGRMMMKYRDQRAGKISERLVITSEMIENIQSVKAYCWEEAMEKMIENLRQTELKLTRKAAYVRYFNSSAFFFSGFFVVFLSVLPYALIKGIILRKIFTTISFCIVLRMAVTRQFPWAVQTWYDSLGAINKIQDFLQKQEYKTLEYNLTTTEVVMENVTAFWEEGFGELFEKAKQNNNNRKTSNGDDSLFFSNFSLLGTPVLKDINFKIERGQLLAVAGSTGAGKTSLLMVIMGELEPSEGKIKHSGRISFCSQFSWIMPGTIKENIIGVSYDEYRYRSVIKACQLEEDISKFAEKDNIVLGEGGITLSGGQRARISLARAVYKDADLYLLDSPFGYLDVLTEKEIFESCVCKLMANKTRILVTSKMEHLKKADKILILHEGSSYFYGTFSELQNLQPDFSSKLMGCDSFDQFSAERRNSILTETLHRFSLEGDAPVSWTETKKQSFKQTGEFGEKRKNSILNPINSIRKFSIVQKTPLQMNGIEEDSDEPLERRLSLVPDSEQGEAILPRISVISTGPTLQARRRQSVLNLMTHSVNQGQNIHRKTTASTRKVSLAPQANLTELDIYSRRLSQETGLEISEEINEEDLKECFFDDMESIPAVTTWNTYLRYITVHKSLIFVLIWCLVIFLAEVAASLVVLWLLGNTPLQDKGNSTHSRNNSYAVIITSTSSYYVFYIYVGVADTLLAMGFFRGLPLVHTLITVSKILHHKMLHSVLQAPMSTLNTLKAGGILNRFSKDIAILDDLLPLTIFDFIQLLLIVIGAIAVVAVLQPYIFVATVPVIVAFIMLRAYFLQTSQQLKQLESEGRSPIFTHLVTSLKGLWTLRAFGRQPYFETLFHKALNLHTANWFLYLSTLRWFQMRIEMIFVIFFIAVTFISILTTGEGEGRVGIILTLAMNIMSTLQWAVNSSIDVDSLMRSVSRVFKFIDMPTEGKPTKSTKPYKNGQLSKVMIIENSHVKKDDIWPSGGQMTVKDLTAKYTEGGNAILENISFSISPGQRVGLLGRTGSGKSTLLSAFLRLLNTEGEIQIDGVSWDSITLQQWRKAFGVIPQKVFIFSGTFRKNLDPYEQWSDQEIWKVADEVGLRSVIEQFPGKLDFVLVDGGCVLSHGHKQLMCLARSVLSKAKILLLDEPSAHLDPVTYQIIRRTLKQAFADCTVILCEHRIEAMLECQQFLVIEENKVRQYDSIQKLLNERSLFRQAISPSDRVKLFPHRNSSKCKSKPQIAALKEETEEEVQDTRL

Turning to `CC(C)(C)c1cc(C(C)(C)C)c(NC(=O)c2c[nH]c3ccccc3c2=O)cc1O` [Compound 1, N-[2,4-bis(1,1-dimethylethyl)-5-hydroxyphenyl]-1,4-dihydro-4-oxoquinoline-3-carboxamide], the concentration for a half-maximal effect (EC50) (commonly the concentration giving half of the maximal effect) was under 10 µM.

Values taken from US20140336219A2, “Pharmaceutical Compositions and Administrations Thereof” (Vertex Pharmaceuticals Incorporated, priority 2011, published 2014).
